# Test results reported in patent publication US12581252B2, “Substituted pyrrolo[3,4-b]pyridines as PI3K-α inhibitors” (Relay Therapeutics, Inc., priority 2020, dated 2026).
# Biological target: H1047R PIK3CA enzyme (Homo sapiens, UniProt P42336, H1047R)
# Assay: ADP-Glo Biochemical PIK3CA Kinase Assay
# H1047R PIK3CA enzyme, sequence (P42336 whole entry H1047R): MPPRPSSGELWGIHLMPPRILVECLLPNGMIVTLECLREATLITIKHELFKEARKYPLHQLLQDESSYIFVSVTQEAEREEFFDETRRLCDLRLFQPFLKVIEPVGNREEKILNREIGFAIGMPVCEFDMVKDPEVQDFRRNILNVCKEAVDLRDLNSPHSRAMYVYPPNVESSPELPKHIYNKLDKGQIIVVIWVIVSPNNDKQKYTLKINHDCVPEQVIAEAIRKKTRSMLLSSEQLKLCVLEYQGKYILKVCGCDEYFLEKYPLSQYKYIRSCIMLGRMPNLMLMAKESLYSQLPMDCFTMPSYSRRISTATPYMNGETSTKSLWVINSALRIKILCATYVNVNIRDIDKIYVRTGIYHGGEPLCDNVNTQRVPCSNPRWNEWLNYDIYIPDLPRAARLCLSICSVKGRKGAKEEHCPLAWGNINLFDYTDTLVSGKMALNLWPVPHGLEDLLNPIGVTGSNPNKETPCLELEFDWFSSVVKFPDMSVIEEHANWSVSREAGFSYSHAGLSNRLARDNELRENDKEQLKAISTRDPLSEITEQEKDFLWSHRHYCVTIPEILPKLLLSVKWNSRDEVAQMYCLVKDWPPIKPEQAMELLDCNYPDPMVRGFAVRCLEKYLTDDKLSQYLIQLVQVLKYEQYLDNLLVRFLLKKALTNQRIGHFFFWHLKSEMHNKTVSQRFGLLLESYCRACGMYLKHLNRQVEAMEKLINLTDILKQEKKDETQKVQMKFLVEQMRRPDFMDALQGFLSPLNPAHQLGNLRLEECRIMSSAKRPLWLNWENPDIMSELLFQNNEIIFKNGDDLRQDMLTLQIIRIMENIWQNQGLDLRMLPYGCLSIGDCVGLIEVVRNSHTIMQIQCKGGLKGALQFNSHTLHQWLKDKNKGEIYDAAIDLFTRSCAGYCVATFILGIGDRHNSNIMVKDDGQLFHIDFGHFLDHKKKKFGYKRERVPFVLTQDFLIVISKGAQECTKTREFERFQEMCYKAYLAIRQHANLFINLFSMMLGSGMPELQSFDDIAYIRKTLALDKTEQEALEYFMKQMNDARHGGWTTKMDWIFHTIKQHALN
# H1047R PIK3CA enzyme, sequence (P27986 whole entry partner): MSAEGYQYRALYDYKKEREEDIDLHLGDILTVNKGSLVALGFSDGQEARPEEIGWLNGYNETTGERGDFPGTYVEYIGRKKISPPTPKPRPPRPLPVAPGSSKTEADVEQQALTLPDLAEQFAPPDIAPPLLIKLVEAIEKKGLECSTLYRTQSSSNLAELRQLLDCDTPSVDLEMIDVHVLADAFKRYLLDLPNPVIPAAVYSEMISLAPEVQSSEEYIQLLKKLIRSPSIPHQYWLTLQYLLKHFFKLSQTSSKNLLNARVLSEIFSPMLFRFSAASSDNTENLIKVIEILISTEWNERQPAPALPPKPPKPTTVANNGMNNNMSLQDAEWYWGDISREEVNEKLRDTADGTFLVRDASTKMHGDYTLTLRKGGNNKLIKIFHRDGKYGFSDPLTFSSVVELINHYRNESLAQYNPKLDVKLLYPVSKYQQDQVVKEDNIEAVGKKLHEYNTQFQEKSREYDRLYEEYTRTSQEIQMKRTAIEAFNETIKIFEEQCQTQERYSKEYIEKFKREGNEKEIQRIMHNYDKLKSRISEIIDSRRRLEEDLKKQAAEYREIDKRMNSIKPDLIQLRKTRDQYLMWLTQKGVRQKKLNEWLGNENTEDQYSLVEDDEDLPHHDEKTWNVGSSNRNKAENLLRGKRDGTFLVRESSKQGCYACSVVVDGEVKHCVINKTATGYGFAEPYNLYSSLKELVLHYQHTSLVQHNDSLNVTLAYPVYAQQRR
row,SMILES,IC50 [µM]
1,O=C(Nc1cc(-c2ccn3ncnc3c2F)cc2c1[C@@H](c1cc(F)ccc1Cl)NC2=O)c1cc(F)cc(C(F)(F)F)c1 [Compound I-1764],1 to 10
2,"C[S@](=O)(Cc1cc(NC(=O)c2cc(F)cc(C(F)(F)F)c2)c2c(c1)C(=O)N[C@H]2c1cc(F)ccc1Cl)=NC#N (single isomer, unassigned) [Compound I-1564]",≤ 0.1
3,"O=C1N[C@H](c2cc(F)ccc2Cl)c2c(NC(=O)[C@H]3CCC[C@@H](OC(F)(F)F)C3)cccc21 (single isomer, unassigned) [Compound I-2217]",10 to 100
4,O=C(Nc1cc(Br)cc2c1C(c1cc(F)ccc1Cl)NC2=O)Oc1ccc2c(n1)NCC2 (stereo not drawn) [Compound I-1206],10 to 100
5,N#Cc1ccc(-c2cc(NC(=O)c3cc(F)cc(C(F)(F)F)c3)c3c(c2)C(=O)N[C@H]3c2cc(F)ccc2Cl)cn1 [Compound I-996],0.5 to 1
6,CN(C)S(=O)(=O)n1cc(-c2cc(NC(=O)c3cc(F)cc(C(F)(F)F)c3)c3c(c2)C(=O)NC3c2cc(F)ccc2Cl)cn1 (stereo not drawn) [Compound I-1592],≤ 0.1
7,O=C1NC(c2cc(F)ccc2Cl)c2c(NC(=O)C3CCCC(O)(C(F)(F)F)C3)cccc21 (stereo not drawn) [Compound I-2136],10 to 100
8,"Cc1ccccc1C1NC(=O)c2cccc(NC(=O)c3ncn4ccc(Cl)cc34)c21 (stereo not drawn) [Compound I-258, 7-chloro-N-[3-(2-methylphenyl)-1-oxo-2,3-dihydro-1H-isoindol-4-yl]imidazo[1,5-a]pyridine-1-carboxamide]",1 to 10
9,C[S+]([O-])c1cc(-c2ccc3ncnn3c2)cc2c1C(c1cc(F)ccc1Cl)NC2=O (stereo not drawn) [Compound I-1940],10 to 100
10,N#C/N=C(\Nc1ccc(F)cc1C(F)(F)F)Nc1cc(Br)cc2c1C(c1cc(F)ccc1Cl)NC2=O (stereo not drawn) [Compound I-1502],1 to 10
11,O=C(CN1CCCC1)Nc1cc(-c2ccc3ncnn3c2)cc2c1C(c1cc(F)ccc1Cl)NC2=O (stereo not drawn) [Compound I-1783],10 to 100
12,"O=C1N[C@H](c2cc(F)ccc2Cl)c2c(NC(=O)N3CCc4cc(F)ccc43)cc(-c3cnn(C(F)F)c3)cc21 (single isomer, unassigned) [Compound I-2356]",1 to 10
13,CNS(=O)(=O)c1cc(-c2ccc3ncnn3c2)cc2c1C(c1cc(F)ccc1Cl)NC2=O (stereo not drawn) [Compound I-1977],10 to 100
14,O=C(Nc1cc(Br)cc2c1C(c1cc(F)ccc1Cl)NC2=O)c1ccnc(C(F)(F)F)c1 (stereo not drawn) [Compound I-523],10 to 100
15,CC(C)(O)C#Cc1cc(NC(=O)c2cc(F)cc(C(F)(F)F)c2)c2c(c1)C(=O)NC2c1cc(F)ccc1Cl (stereo not drawn) [Compound I-1191],≤ 0.1
16,CS(=O)(=O)N1CC(c2cc(NC(=O)c3cc(F)cc(C(F)(F)F)c3)c3c(c2)C(=O)NC3c2cc(F)ccc2Cl)C1 (stereo not drawn) [Compound I-1228],≤ 0.1
17,CNc1cc(NC(=O)N2C[C@](O)(C(F)F)c3cc(F)ccc32)c2c(c1)C(=O)N[C@@H]2c1cc(F)ccc1Cl [Compound I-2677],≤ 0.1
18,O=C(Nc1cc(-n2ccnn2)cc2c1C(c1cc(F)ccc1Cl)NC2=O)c1cc(F)cc(C(F)(F)F)c1 (stereo not drawn) [Compound I-2148],≤ 0.1
19,N#Cc1ccc2c(c1)CCN2c1cc(NC(=O)c2cc(F)cc(C(F)(F)F)c2)c2c(c1)C(=O)NC2c1cc(F)ccc1Cl (stereo not drawn) [Compound I-1263],≤ 0.1
20,O=C(Nc1cc(-c2ccc3ncnn3c2)cc2c1C(c1cc(F)ccc1Cl)NC2=O)c1cc(CO)cc(C(F)(F)F)c1 (stereo not drawn) [Compound I-1773],10 to 100
21,CC(N1C[C@H](O)C[C@H]1C(=O)Nc1cccc2c1C(c1cc(F)ccc1Cl)NC2=O)C(F)(F)F (mixture of isomers) [Compound I-2407],10 to 100

row,SMILES,IC50 [µM]
1,CCC1CCCN1C(=O)Nc1cccc2c1C(c1cc(F)ccc1Cl)NC2=O (mixture of isomers) [Compound I-2395],1 to 10
2,CCn1cc(-c2cc(NC(=O)c3cc(F)cc(C(F)(F)F)c3)c3c(c2)C(=O)N[C@@H]3c2cc(F)ccc2Cl)ccc1=O [Compound I-703],10 to 100
3,COc1ccc2c(c1)CCN2C(=O)Nc1cccc2c1C(c1cc(F)ccc1Cl)NC2=O (stereo not drawn) [Compound I-2437],10 to 100
4,Cc1ccccc1C1NC(=O)c2c(N3CCOCC3)ncc(NC(=O)c3cc(F)cc(C(F)(F)F)c3)c21 (stereo not drawn) [Compound I-253],1 to 10
5,C=CC(CC(=O)Nc1cccc2c1C(c1cc(F)ccc1Cl)NC2=O)C(C)C(F)(F)F (mixture of isomers) [Compound I-2195],1 to 10
6,Cc1ccc(F)cc1[C@@H]1NC(=O)c2cc(Br)cc(NC(=O)c3cc(F)cc(C(F)(F)F)c3)c21 [Compound I-758],≤ 0.1
7,O=C1NC(c2cc(F)ccc2Cl)c2c(NC(=O)N3CCc4c(Cl)cccc43)cccc21 (stereo not drawn) [Compound I-2442],1 to 10
8,CNC(=O)c1cc(NC(=O)c2cc(F)cc(C(F)(F)F)c2)c2c(c1)c(=O)[nH]n2-c1cc(F)ccc1Cl [Compound I-808],1 to 10
9,O=C1NC(c2ccc3ccccc3c2)c2c(NC(=O)c3nsc4ccccc34)cccc21 (stereo not drawn) [Compound I-392],10 to 100
10,O=C1NC(c2cc(F)ccc2Cl)c2c(NC(=O)N3CCCC34CCCC4)cc(Br)cc21 (stereo not drawn) [Compound I-2424],0.5 to 1
11,O=C1NC(c2cc(F)ccc2Cl)c2c(NC(=O)N3C[C@@H](O)[C@@H](O)C3)cc(-c3ccc4ncnn4c3)cc21 (stereo partly drawn) [Compound I-1965],10 to 100
12,"CC1(Cc2cc(NC(=O)N3C[C@@](O)(C(F)(F)F)c4cc(F)ccc43)c3c(c2)C(=O)N[C@@H]3c2cc(F)ccc2Cl)COC1 (single isomer, unassigned) [Compound I-2658]",1 to 10
13,O=C1NC(c2cc(F)ccc2Cl)c2c(NC(=O)N3CCSC3)cccc21 (stereo not drawn) [Compound I-2428],10 to 100
14,O=C1CC2(CCN(c3cc(NC(=O)c4cc(F)cc(C(F)(F)F)c4)c4c(c3)C(=O)NC4c3cc(F)ccc3Cl)C2)CN1 (stereo not drawn) [Compound I-1267],≤ 0.1
15,O=C1NC(c2cc(F)ccc2Cl)c2c(NC(=O)C3(O)CCCC(C(F)(F)F)C3)cccc21 (mixture of isomers) [Compound I-2088],10 to 100
16,CNC(=O)c1cc(NC(=O)c2nsc3ccccc23)c2c(c1)C(=O)N[C@H]2c1ccccc1C [Compound I-163],≤ 0.1
17,Cn1nc2ccccc2c1Nc1cc(-c2ccc3ncnn3c2)cc2c1C(c1cc(F)ccc1Cl)NC2=O (stereo not drawn) [Compound I-1841],10 to 100
18,CC(C)(O)CNc1cc(NC(=O)c2cc(F)cc(C(F)(F)F)c2)c2c(c1)C(=O)N[C@H]2c1cc(F)ccc1Cl [Compound I-899],10 to 100
19,Nc1nc2ccc(-c3cc(NC(=O)c4cc(F)cc(C(F)(F)F)c4)c4c(c3)C(=O)NC4c3cc(F)ccc3Cl)cn2n1 (stereo not drawn) [Compound I-1368],≤ 0.1
20,"O=C1N[C@H](c2cc(F)ccc2Cl)c2c(NC(=O)N3C[C@@](O)(C(F)(F)F)c4ccccc43)cc(Cl)cc21 (single isomer, unassigned) [Compound I-2506]",1 to 10
21,O=C1NC(c2cc(F)ccc2Cl)c2c(NC(=O)N3CC4CC4(F)C3)cc(Br)cc21 (stereo not drawn) [Compound I-1954],10 to 100

row,SMILES,IC50 [µM]
1,CS(=O)(=O)CCn1cc(-c2cc(NC(=O)c3cc(F)cc(C(F)(F)F)c3)c3c(c2)C(=O)NC3c2cc(F)ccc2Cl)cn1 (stereo not drawn) [Compound I-1398],≤ 0.1
2,O=C(Nc1cc(NC(=O)C2(O)CC2)cc2c1C(c1cc(F)ccc1Cl)NC2=O)c1cc(F)cc(C(F)(F)F)c1 (stereo not drawn) [Compound I-592],≤ 0.1
3,CS(=O)(=O)Nc1cc(-c2ccc3ncnn3c2)cc2c1C(c1cc(F)ccc1Cl)NC2=O (stereo not drawn) [Compound I-1898],1 to 10
4,"Nc1cc(NC(=O)N2C[C@H](O)c3ccccc32)c2c(c1)C(=O)N[C@@H]2c1cc(F)ccc1Cl (single isomer, unassigned) [Compound I-2130]",1 to 10
5,"Cc1nccn1-c1cc(NC(=O)N2C[C@](O)(C(F)(F)F)c3cc(F)ccc32)c2c(c1)C(=O)N[C@H]2c1cc(F)ccc1Cl (single isomer, unassigned) [Compound I-2664]",1 to 10
6,O=C(Nc1cc(OCC2CC2)cc2c1C(c1cc(F)ccc1Cl)NC2=O)c1cc(F)cc(C(F)(F)F)c1 (stereo not drawn) [Compound I-2134],0.1 to 0.5
7,O=C(Nc1cc(CN2CCn3ncnc3C2)cc2c1C(c1cc(F)ccc1Cl)NC2=O)c1cc(F)cc(C(F)(F)F)c1 (stereo not drawn) [Compound I-1400],≤ 0.1
8,"O=C1N[C@@H](c2cc(F)ccc2Cl)c2c(NC(=O)[C@@H]3CC[C@H](O)C3)cc(Br)cc21 (single isomer, unassigned) [Compound I-2104]",10 to 100
9,O=C(Nc1cccc2c(=O)[nH]n(C3CCCCC3)c12)c1cc(F)cc(C(F)(F)F)c1 [Compound I-629],1 to 10
10,Cc1ccccc1C1NC(=O)c2cccc(NC(=O)c3cc(F)cc(OC(F)F)c3)c21 (stereo not drawn) [Compound I-59],1 to 10
11,Cc1ccccc1C1NC(=O)c2cccc(NC(=O)c3cc(F)cc(C(F)F)c3)c21 (stereo not drawn) [Compound I-112],1 to 10
12,"O=C1N[C@H](c2cc(F)ccc2Cl)c2c(NC(=O)N3C[C@H](O)c4cc(F)ccc43)cccc21 (single isomer, unassigned) [Compound I-2128]",10 to 100
13,Cc1ccccc1C1NC(=O)c2cccc(NC(=O)c3coc4cc(F)ccc34)c21 (stereo not drawn) [Compound I-20],0.5 to 1
14,COc1cnccc1-c1cc(NC(=O)c2cc(F)cc(C(F)(F)F)c2)c2c(c1)C(=O)NC2c1cc(F)ccc1Cl (stereo not drawn) [Compound I-1219],≤ 0.1
15,N#Cc1cnc2ccc(-c3cc(NC(=O)c4cc(F)cc(C(F)(F)F)c4)c4c(c3)C(=O)N[C@@H]4c3cc(F)ccc3Cl)cn12 [Compound I-1442],0.1 to 0.5
16,O=C(Nc1cc(N2CCn3cnnc3C2)cc2c1C(c1cc(F)ccc1Cl)NC2=O)c1cc(F)cc(C(F)(F)F)c1 (stereo not drawn) [Compound I-1354],≤ 0.1
17,O=C(Nc1cccc2c1C(c1cc(F)ccc1Cl)NC2=O)c1cc(Br)cc(C(F)(F)F)c1 (stereo not drawn) [Compound I-447],1 to 10
18,NC(=O)c1cnccc1-c1cc(NC(=O)c2cc(F)cc(Cl)c2)c2c(n1)C(=O)NC2c1cc(F)ccc1Cl (stereo not drawn) [Compound I-507],1 to 10
19,O=C1N[C@@H](c2cc(F)ccc2Cl)c2c(NC(=O)[C@H]3CCCNC3)cc(-c3ccc4ncnn4c3)cc21 (racemic) [Compound I-1847],10 to 100
20,Nc1cc(-c2cc(NC(=O)c3cc(F)cc(C(F)(F)F)c3)c3c(c2)C(=O)NC3c2cc(F)ccc2Cl)ncn1 (stereo not drawn) [Compound I-1089],≤ 0.1
21,O=C1NC(c2cc(F)ccc2Cl)c2c(CO)cc(-c3ccc4ncnn4c3)cc21 (stereo not drawn) [Compound I-1851],10 to 100
